Molecular target: High affinity nerve growth factor receptor (Homo sapiens, UniProt P04629)
Experiment: Evaluation of Binding Activity for Human TrkA Protein: Measurement was carried out using TrkA LanthaScreen (registered trademark) Eu Kinase Binding Assay (ThermoFisher SCIENTIFIC). To a 384 well plate (Corning), 2.5 μL of the test compound having various concentrations and diluted with Kinase buffer (ThermoFisher SCIENTIFIC) and 2.5 μL of 15 nM TrkA enzyme (ThermoFisher SCIENTIFIC) were added. Moreover, […] Eu-anti-His Tag antibody (ThermoFisher SCIENTIFIC) and 5 μL of 30 nM Kinase (registered trademark) Tracer 236 (ThermoFisher SCIENTIFIC) were added, followed by reaction at room temperature for 60 minutes. After the reaction, the fluorescence intensity of Europium (Emission wavelength 615 nm) and TR-FRET (Emission wavelength 665 nm) with an excitation wavelength of 340 nm were measured with EnVision 2100 (PerkinElmer) to calculate the fluorescence ratio as the amount of the test compound and the TrkA enzyme bonded. The inhibitory activity (IC50 value) of each test compound was calculated with the fluorescence ratio of the well to which a solvent was added instead of the test compound being 0% and the fluorescence ratio of the well without addition of the TrkA protein being 100%.

Sequence of High affinity nerve growth factor receptor (P04629 whole entry): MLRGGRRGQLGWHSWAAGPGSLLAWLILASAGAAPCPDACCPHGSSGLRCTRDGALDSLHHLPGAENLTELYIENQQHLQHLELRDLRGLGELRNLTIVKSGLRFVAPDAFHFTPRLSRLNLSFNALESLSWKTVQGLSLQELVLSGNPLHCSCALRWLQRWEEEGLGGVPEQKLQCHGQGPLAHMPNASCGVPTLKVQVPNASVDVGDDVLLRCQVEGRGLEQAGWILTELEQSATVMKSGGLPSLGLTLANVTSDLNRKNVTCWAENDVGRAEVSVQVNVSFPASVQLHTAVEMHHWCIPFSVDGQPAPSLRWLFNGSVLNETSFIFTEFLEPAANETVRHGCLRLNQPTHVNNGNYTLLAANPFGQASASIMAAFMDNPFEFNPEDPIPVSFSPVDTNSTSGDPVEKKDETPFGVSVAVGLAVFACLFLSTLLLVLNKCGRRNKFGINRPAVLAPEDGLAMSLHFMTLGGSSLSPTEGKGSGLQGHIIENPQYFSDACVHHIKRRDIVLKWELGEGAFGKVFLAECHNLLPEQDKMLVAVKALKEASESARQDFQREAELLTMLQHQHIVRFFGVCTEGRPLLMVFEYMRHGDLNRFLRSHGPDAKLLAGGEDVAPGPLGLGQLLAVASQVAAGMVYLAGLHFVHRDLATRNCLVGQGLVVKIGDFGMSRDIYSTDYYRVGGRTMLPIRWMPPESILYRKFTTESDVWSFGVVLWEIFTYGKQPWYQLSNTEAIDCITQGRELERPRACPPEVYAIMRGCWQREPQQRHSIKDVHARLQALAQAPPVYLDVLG

| SMILES | IC50 |
| --- | --- |
| Cc1ncc(-c2nc(-c3ccccc3)c(NC(=O)N[C@H]3c4ccc(F)cc4C(C)(C)C[C@H]3O)cc2C)cn1 | < 50 nM |
| Cc1ncc(-c2nc(-c3ccccc3)c(NC(=O)N[C@H]3c4cc(F)ccc4C(C)(C)C[C@H]3O)cc2C)cn1 | < 50 nM |

From ChEMBL document CHEMBL5727275, “Tetrahydronaphthyl urea derivative” (2019)
